According to patent US12077503B2, “Substituted cyclic amides and their use as herbicides” (FMC CORPORATION, priority 2015, dated 2024):

Key:
Assay type in all cases: in vivo
[1] = test system: ryegrass, Italian (Italian ryegrass, Lolium multiflorum); assay: Test A postemergence; conditions: Lolium multiflorum, post-emergence, 240 h, Postemergence, read-out: Plant response rating, Ryegrass, Italian
Outline: (§1)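 Preemergence directed soil spray on seeded pots, or postemergence application to plants 2–10 cm, one- to two-leaf. Solvent mixture non-phytotoxic, with surfactant. Scored ~10 d later, visually, 0–100 vs untreated.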

corn (Zea mays) = assay: Test A postemergence; conditions: Zea mays, post-emergence, 240 h, Postemergence
Outline: as §1

[2] = test system: Galium (catchweed bedstraw, Galium aparine); assay: Test A postemergence; conditions: Galium, post-emergence, 240 h, Postemergence, read-out: Plant response rating, Galium
Outline: as §1

[3] = test system: ragweed (common ragweed, Ambrosia elatior); assay: Test A postemergence; conditions: Ambrosia artemisiifolia, post-emergence, 240 h, Postemergence, read-out: Plant response rating, Ragweed
Outline: as §1

[4] = test system: blackgrass (Alopecurus myosuroides); assay: Test A postemergence; conditions: Alopecurus myosuroides, post-emergence, 240 h, Postemergence, read-out: Plant response rating, Blackgrass
Outline: as §1

[5] = test system: giant foxtail (Setaria faberii); assay: Test A postemergence; conditions: Setaria faberi, post-emergence, 240 h, Postemergence, read-out: Plant response rating, Foxtail, Giant
Outline: as §1

[6] = test system: barnyardgrass (Echinochloa crus-galli); assay: Test A postemergence; conditions: Echinochloa crus-galli, post-emergence, 240 h, Postemergence, read-out: Plant response rating, Barnyardgrass
Outline: as §1

[7] = test system: wheat (Triticum aestivum); assay: Test A postemergence; conditions: Triticum aestivum, post-emergence, 240 h, Postemergence, read-out: Plant response rating, Wheat
Outline: as §1

Kochia (Kochia scoparia) [8] = assay: Test A postemergence; conditions: Bassia scoparia, post-emergence, 240 h, Postemergence, read-out: Plant response rating, Kochia
Outline: as §1

[9] = test system: pigweed (Amaranthus retroflexus); assay: Test A postemergence; conditions: Amaranthus retroflexus, post-emergence, 240 h, Postemergence, read-out: Plant response rating, Pigweed
Outline: as §1

[10] = test system: barnyardgrass (Echinochloa crus-galli); assay: Test B flooded paddy test; conditions: Echinochloa crus-galli, Flood, 250 g ai/ha; scale of 0 to 100 where 0 is no effect and 100 is complete control; read-out: Barnyardgrass plant response rating
Outline: (§2)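 Plants at 2-leaf stage flooded to 3 cm above soil, with compounds applied directly to paddy water and that depth maintained. Plants kept in greenhouse 13–15 d. Visual rating versus controls on a 0 (no effect) to 100 (complete control) scale.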

rice (Oryra sativa) = assay: Test B flooded paddy test; conditions: Oryza sativa, Flood, 250 g ai/ha; scale of 0 to 100 where 0 is no effect and 100 is complete control; read-out: Rice plant response rating
Outline: as §2

[11] = test system: sedge, umbrella (small-flower umbrella sedge, Cyperus difformis); assay: Test B flooded paddy test; conditions: Cyperus difformis, Flood, 250 g ai/ha; scale of 0 to 100 where 0 is no effect and 100 is complete control; read-out: Sedge, Umbrella plant response rating
Outline: as §2

[12] = test system: ducksalad (Heteranthera limosa); assay: Test B flooded paddy test; conditions: Heteranthera limosa, Flood, 250 g ai/ha; scale of 0 to 100 where 0 is no effect and 100 is complete control; read-out: Ducksalad plant response rating
Outline: as §2

[13] = test system: ryegrass, Italian (Italian ryegrass, Lolium multiflorum); assay: Test A preemergence; conditions: Lolium multiflorum, pre-emergence, 240 h, Preemergence
Outline: as §1

[14] = test system: ragweed (common ragweed, Ambrosia elatior); assay: Test A preemergence; conditions: Ambrosia artemisiifolia, pre-emergence, 240 h, Preemergence
Outline: as §1

[15] = test system: giant foxtail (Setaria faberii); assay: Test A preemergence; conditions: Setaria faberi, pre-emergence, 240 h, Preemergence
Outline: as §1

[16] = test system: barnyardgrass (Echinochloa crus-galli); assay: Test A preemergence; conditions: Echinochloa crus-galli, pre-emergence, 240 h, Preemergence
Outline: as §1

Kochia (Kochia scoparia) [17] = assay: Test A preemergence; conditions: Bassia scoparia, pre-emergence, 240 h, Preemergence
Outline: as §1

[18] = test system: pigweed (Amaranthus retroflexus); assay: Test A preemergence; conditions: Amaranthus retroflexus, pre-emergence, 240 h, Preemergence
[19] = 125 g ai/ha, visual injury after approximately 10 d, 0 to 100 scale where 0 is no effect and 100 is complete control
[20] = 31 g ai/ha, visual injury after approx. 10 d, 0 to 100 scale, 0 no effect, 100 complete control

For `Cc1oncc1NC(=O)[C@H]1C(=O)N(C)C[C@@H]1c1cc(F)cc(F)c1` [Compound 970], which pest or weed control at 125 g/ha [1, 19] is on record?
The pest or weed control at 125 g/ha was 0%.

What about the pest or weed control at 31 g/ha [1, 20] of the same compound?
The pest or weed control at 31 g/ha was 0%.

And the Corn plant response rating (crop injury, 0 = no effect, 100 = complete kill) at 125 g/ha (corn (Zea mays); [19])?
Its Corn plant response rating (crop injury, 0 = no effect, 100 = complete kill) at 125 g/ha is 0%.

What about the Corn plant response rating (crop injury, 0 = no effect, 100 = complete kill) at 31 g/ha (corn (Zea mays); [20]) of the same compound?
Its Corn plant response rating (crop injury, 0 = no effect, 100 = complete kill) at 31 g/ha is 0%.

And the pest or weed control at 125 g/ha [2, 19]?
Its pest or weed control at 125 g/ha is 0%.

What about the pest or weed control at 31 g/ha [2, 20] of the same compound?
The pest or weed control at 31 g/ha was 0%.

And the pest or weed control at 125 g/ha [3, 19]?
The pest or weed control at 125 g/ha was 0%.

And the pest or weed control at 31 g/ha [3, 20]?
Its pest or weed control at 31 g/ha is 0%.

And the pest or weed control at 125 g/ha [4, 19]?
The pest or weed control at 125 g/ha was 0%.

What about the pest or weed control at 31 g/ha [4, 20] of the same compound?
Its pest or weed control at 31 g/ha is 0%.

And the pest or weed control at 125 g/ha [5, 19]?
Its pest or weed control at 125 g/ha is 0%.

What about the pest or weed control at 31 g/ha [5, 20] of the same compound?
The pest or weed control at 31 g/ha was 0%.

What about the pest or weed control at 125 g/ha [6, 19] of the same compound?
Its pest or weed control at 125 g/ha is 0%.

And the pest or weed control at 31 g/ha [6, 20]?
The pest or weed control at 31 g/ha was 0%.

What about the plant injury at 125 g/ha [7, 19] of the same compound?
The plant injury at 125 g/ha was 0%.

And the plant injury at 31 g/ha [7, 20]?
Its plant injury at 31 g/ha is 0%.

What about the pest or weed control at 125 g/ha (Kochia (Kochia scoparia) [8]; [19]) of the same compound?
Its pest or weed control at 125 g/ha is 0%.

What about the pest or weed control at 31 g/ha (Kochia (Kochia scoparia) [8]; [20]) of the same compound?
The pest or weed control at 31 g/ha was 0%.

What about the pest or weed control at 125 g/ha [9, 19] of the same compound?
The pest or weed control at 125 g/ha was 0%.

And the pest or weed control at 31 g/ha [9, 20]?
The pest or weed control at 31 g/ha was 0%.

And the pest or weed control at 250 g/ha [10]?
Its pest or weed control at 250 g/ha is 0%.

And the pest or weed control at 250 g/ha (rice (Oryra sativa))?
Its pest or weed control at 250 g/ha is 0%.

And the pest or weed control at 250 g/ha [11]?
Its pest or weed control at 250 g/ha is 0%.

And the pest or weed control at 250 g/ha [12]?
Its pest or weed control at 250 g/ha is 0%.

What about the pest or weed control at 125 g/ha ([13]; 125 g ai/ha, visual injury rating after approximately 10 d, read-out: Ryegrass, Italian plant response rating (0 to 100 scale, 0 is no effect, 100 is complete control)) of the same compound?
Its pest or weed control at 125 g/ha is 0%.

What about the pest or weed control at 31 g/ha ([13]; 31 g ai/ha, 0 to 100 scale (0 no effect, 100 complete control), read-out: Plant response rating, Ryegrass, Italian) of the same compound?
Its pest or weed control at 31 g/ha is 0%.

And the pest or weed control at 125 g/ha ([14]; 125 g ai/ha, visual injury rating after approximately 10 d, read-out: Ragweed plant response rating (0 to 100 scale, 0 is no effect, 100 is complete control))?
The pest or weed control at 125 g/ha was 0%.

And the pest or weed control at 31 g/ha ([14]; 31 g ai/ha, 0 to 100 scale (0 no effect, 100 complete control), read-out: Plant response rating, Ragweed)?
The pest or weed control at 31 g/ha was 0%.

What about the pest or weed control at 125 g/ha ([15]; 125 g ai/ha, visual injury rating after approximately 10 d, read-out: Foxtail, Giant plant response rating (0 to 100 scale, 0 is no effect, 100 is complete control)) of the same compound?
The pest or weed control at 125 g/ha was 80%.

And the pest or weed control at 31 g/ha ([15]; 31 g ai/ha, 0 to 100 scale (0 no effect, 100 complete control), read-out: Plant response rating, Foxtail, Giant)?
The pest or weed control at 31 g/ha was 20%.

And the pest or weed control at 125 g/ha ([16]; 125 g ai/ha, visual injury rating after approximately 10 d, read-out: Barnyardgrass plant response rating (0 to 100 scale, 0 is no effect, 100 is complete control))?
The pest or weed control at 125 g/ha was 0%.

What about the pest or weed control at 31 g/ha ([16]; 31 g ai/ha, 0 to 100 scale (0 no effect, 100 complete control), read-out: Plant response rating, Barnyardgrass) of the same compound?
Its pest or weed control at 31 g/ha is 0%.

And the pest or weed control at 125 g/ha (Kochia (Kochia scoparia) [17]; 125 g ai/ha, visual injury rating after approximately 10 d, read-out: Kochia plant response rating (0 to 100 scale, 0 is no effect, 100 is complete control))?
Its pest or weed control at 125 g/ha is 0%.

And the pest or weed control at 31 g/ha (Kochia (Kochia scoparia) [17]; 31 g ai/ha, 0 to 100 scale (0 no effect, 100 complete control), read-out: Plant response rating, Kochia)?
Its pest or weed control at 31 g/ha is 0%.

What about the pest or weed control at 125 g/ha ([18]; 125 g ai/ha, visual injury rating after approximately 10 d, read-out: Pigweed plant response rating (0 to 100 scale, 0 is no effect, 100 is complete control)) of the same compound?
The pest or weed control at 125 g/ha was 0%.

What about the pest or weed control at 31 g/ha ([18]; 31 g ai/ha, 0 to 100 scale (0 no effect, 100 complete control), read-out: Plant response rating, Pigweed) of the same compound?
The pest or weed control at 31 g/ha was 0%.
